# Measured values taken from PubChem BioAssay AID330 (DTP/NCI, 2004).
# Values joined by “and” are separate entries in the source; they are usually repeats but may differ in a detail not shown here. Identical values can stand only once. Inconclusive results and toxic doses are left out.
# Test system: P388 leukemia ip, CD2F1 mice, survival T/C
# Test: NCI In Vivo Anticancer Drug Screen. Data for tumor model P388 Leukemia (intraperitoneal) in CD2F1 (CDF1) mice
# Details: endpoint: median survival time, higher = longer survival
# How it was run: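 Mice carrying the transplanted tumor received test compound or vehicle. Survival was recorded in each group, and the value is the treated-group measurement divided by that of the vehicle-treated control group.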
# [1] = dose: 25.0 mg/kg/injection, schedule: Q01DX009 (ip), vehicle: other
# [2] = dose: 50.0 mg/kg/injection, schedule: Q01DX009 (ip), vehicle: other
# [3] = dose: 12.5 mg/kg/injection, schedule: Q01DX009 (ip), vehicle: saline with Tween-80
# [4] = dose: 25.0 mg/kg/injection, schedule: Q01DX009 (ip), vehicle: saline with Tween-80
# [5] = dose: 50.0 mg/kg/injection, schedule: Q01DX009 (ip), vehicle: saline with Tween-80
compound,measurement,setting,value
CC12CCCCC1=CC(=O)CC2 (centres undefined),T/C,"dose: 12.5 mg/kg/injection, schedule: Q01DX009 (ip), vehicle: other",97 % of control
same,T/C,[1],100 % of control
same,T/C,"dose: 25.0 mg/kg/injection, schedule: Q01DX009 (ip), vehicle: saline + Tween-80 + alcohol",100 % of control
same,T/C,[2],107 % of control
same,T/C,"dose: 50.0 mg/kg/injection, schedule: Q01DX009 (ip), vehicle: saline + Tween-80 + alcohol",100 % of control
same,T/C,"dose: 100.0 mg/kg/injection, schedule: Q01DX009 (ip), vehicle: saline + Tween-80 + alcohol",104 % of control and 114 % of control
same,T/C,"dose: 200.0 mg/kg/injection, schedule: Q01DX009 (ip), vehicle: saline + Tween-80 + alcohol",106 % of control
COC1(OC)/C(=C/Cl)CC2(C)C(=O)NC(=O)C21Cl (centres undefined),T/C,"dose: 25.0 mg/kg/injection, schedule: Q01DX005 (ip), vehicle: Klucel (hydroxypropylcellulose) (HPC)",106 % of control
same,T/C,"dose: 50.0 mg/kg/injection, schedule: Q01DX005 (ip), vehicle: Klucel (hydroxypropylcellulose) (HPC)",105 % of control
same,T/C,"dose: 100.0 mg/kg/injection, schedule: Q01DX005 (ip), vehicle: Klucel (hydroxypropylcellulose) (HPC)",105 % of control
same,T/C,"dose: 200.0 mg/kg/injection, schedule: Q01DX005 (ip), vehicle: Klucel (hydroxypropylcellulose) (HPC)",106 % of control
Cc1ccc(N2C(=O)CC3(CCCCC3)C2=O)c(C)c1,T/C,"dose: 50.0 mg/kg/injection, schedule: Q01DX009 (ip), vehicle: Klucel (hydroxypropylcellulose) (HPC)",105 % of control
same,T/C,"dose: 100.0 mg/kg/injection, schedule: Q01DX009 (ip), vehicle: Klucel (hydroxypropylcellulose) (HPC)",109 % of control
same,T/C,"dose: 200.0 mg/kg/injection, schedule: Q01DX009 (ip), vehicle: Klucel (hydroxypropylcellulose) (HPC)",103 % of control
CCOC(=O)N1C(=O)C2C3CCC(C2C1=O)C1C2C(=O)N(C(=O)OCC)C(=O)C2C31 (centres undefined),T/C,[3],103 % of control
same,T/C,[4],104 % of control and 111 % of control
same,T/C,[5],115 % of control
same,T/C,"dose: 100.0 mg/kg/injection, schedule: Q01DX009 (ip), vehicle: saline with Tween-80",157 % of control
same,T/C,"dose: 200.0 mg/kg/injection, schedule: Q01DX009 (ip), vehicle: saline with Tween-80",222 % of control
Cn1c(=O)c2cc3c(cc2c2ccccc21)OCO3,T/C,[1],90 % of control
same,T/C,[2],93 % of control
same,T/C,"dose: 100.0 mg/kg/injection, schedule: Q01DX009 (ip), vehicle: other",90 % of control
same,T/C,"dose: 200.0 mg/kg/injection, schedule: Q01DX009 (ip), vehicle: other",90 % of control
same,T/C,"dose: 400.0 mg/kg/injection, schedule: Q01DX009 (ip), vehicle: other",93 % of control
C[CH2][Pb]([Br])([CH2]C)[CH2]C,T/C,"dose: 3.12 mg/kg/injection, schedule: Q01DX009 (ip), vehicle: saline with Tween-80",105 % of control and 97 % of control
same,T/C,"dose: 6.25 mg/kg/injection, schedule: Q01DX009 (ip), vehicle: saline with Tween-80",103 % of control and 107 % of control
same,T/C,[3],113 % of control and 114 % of control
same,T/C,[4],106 % of control
same,T/C,[5],107 % of control
Cc1nc(N)[nH]c(=O)c1CCCCC#N,T/C,"dose: 60.0 mg/kg/injection, schedule: Q01DX005 (ip), vehicle: Klucel (hydroxypropylcellulose) (HPC)",104 % of control
same,T/C,"dose: 120.0 mg/kg/injection, schedule: Q01DX005 (ip), vehicle: Klucel (hydroxypropylcellulose) (HPC)",104 % of control
COc1ccc(C(=O)N/N=C2\C(=O)c3c(C)cc(C)cc3CC2(C)C)cc1,T/C,"dose: 50.0 mg/kg/injection, schedule: Q01DX009 (ip), vehicle: saline",100 % of control
same,T/C,"dose: 100.0 mg/kg/injection, schedule: Q01DX009 (ip), vehicle: saline",100 % of control
same,T/C,"dose: 200.0 mg/kg/injection, schedule: Q01DX009 (ip), vehicle: saline",94 % of control
C/C(=N\NC(=S)N1CC2CCC(CC2)C1)c1cccc(C)n1,T/C,"dose: 6.25 mg/kg/injection, schedule: Q01DX005 (ip), vehicle: saline with Tween-80",102 % of control and 114 % of control
same,T/C,"dose: 12.5 mg/kg/injection, schedule: Q01DX005 (ip), vehicle: saline with Tween-80",112 % of control
COc1ccc2c(c1)CCc1c-2nc[nH]c1=O,T/C,"dose: 100.0 mg/kg/injection, schedule: Q04DX002 (ip), vehicle: saline with Tween-80",103 % of control
same,T/C,"dose: 200.0 mg/kg/injection, schedule: Q04DX002 (ip), vehicle: saline with Tween-80",96 % of control
same,T/C,"dose: 400.0 mg/kg/injection, schedule: Q04DX002 (ip), vehicle: saline with Tween-80",96 % of control
